In ChEMBL document CHEMBL4840337, “A Potent Fluorescent Reversible-Covalent Inhibitor of Cardiac Muscle Contraction” (ACS Med Chem Lett, 2021):
Activity calls are given as the source filed them. The rule behind the calls is not given here.

Experiments:
[1] = Aqueous solubility of the compound by fluorescence spectroscopy analysis; assay type: physicochemical
Homo sapiens [2] = species: Homo sapiens; experiment: Binding affinity to BME-bound [15N]-labelled cNTnC (1 to 90 residues)- cTnI (136 to 163 residues) C35S mutant chimeric protein (unknown origin) expressed in Escherichia coli BL21 (DE3) up to 60 uM by 2D 1H, 15N HSQC NMR spectroscopy analysis; details: dose microM <=60
Homo sapiens [3] = species: Homo sapiens; experiment: Binding affinity to [15N]-labelled cNTnC (1 to 90 residues)- cTnI (136 to 163 residues) A-Cys chimeric protein harboring C35S/C84S double mutant (unknown origin) assessed as NMR fast exchange by 2D 1H, 15N HSQC NMR spectroscopy analysis
[4] = Inhibition of actomyosin ATPase activity in bovine cardiac myofibrils assessed as reduction in inorganic phosphate release using ATP as substrate preincubated for 30 mins in presence of pCa 4.5 followed by substrate addition by malachite green based assay; design: species or system Bos taurus
[5] = Stability of the compound in NMR buffer at 50 uM in the absence of DTT measured after 40 hrs at 30 degC by 1D H-NMR analysis; assay type: physicochemical
Bos taurus [6] = species: Bos taurus; experiment: Inhibition of actomyosin ATPase activity in bovine cardiac myofibrils assessed as reduction in inorganic phosphate release using ATP as substrate preincubated for 30 mins in presence of pCa 6 followed by substrate addition by malachite green based assay
[7] = Binding affinity to calcium saturated His tagged cNTnC (1 to 90 residues)- cTnI (136 to 163 residues) C35S mutant chimeric protein (unknown origin) assessed as dissociation constant by flourescence spectroscopy analysis; design: species or system Homo sapiens
[8] = Reactivity with dithiothreitol in NMR buffer at 50 uM measured up to 24 hrs by 1D H-NMR analysis; details: time hrs <=24
[9] = Drug degradation assessed as new spectra with MW of 202 Da formation at 40 uM measured after incubation of 8-month old compound with [15N]-labelled cNTnC (1 to 90 residues)-cTnI (136 to 163 residues) C35S mutant chimeric protein (unknown origin) by 2D 1H, 15N HSQC NMR spectroscopy analysis; assay type: ADME
[10] = Covalent binding affinity to [15N]-labelled cNTnC (1 to 90 residues)- cTnI (136 to 163 residues) C35S mutant chimeric protein (unknown origin) expressed in Escherichia coli BL21 (DE3) assessed as dissociation constant by 2D 1H, 15N HSQC NMR spectroscopy analysis; design: species or system Homo sapiens
[11] = Aqueous solubility of the compound by 1D H-NMR spectroscopy analysis; assay type: physicochemical
Bos taurus [12] = species: Bos taurus; experiment: Inhibition of actomyosin ATPase activity in bovine cardiac myofibrils assessed as reduction in inorganic phosphate release using ATP as substrate preincubated for 30 mins in presence of pCa 9 followed by substrate addition by malachite green based assay
[13] = Drug degradation assessed as new spectra with MW of 404 Da formation at 40 uM measured after incubation of 8-month old compound with [15N]-labelled cNTnC (1 to 90 residues)-cTnI (136 to 163 residues) C35S mutant chimeric protein (unknown origin) by 2D 1H, 15N HSQC NMR spectroscopy analysis; assay type: ADME
Homo sapiens [14] = species: Homo sapiens; experiment: Binding affinity to BME-bound [15N]-labelled cNTnC (1 to 90 residues)- cTnI (136 to 163 residues) C35S mutant chimeric protein (unknown origin) expressed in Escherichia coli BL21 (DE3) up to 60 uM in the presence of DTT by 2D 1H, 15N HSQC NMR spectroscopy analysis; details: dose microM <=60
[15] = Binding affinity to calcium saturated His-tagged cNTnC (1 to 90 residues)- cTnI (136 to 163 residues) A-Cys chimeric protein harboring C35S/C84S double mutant (unknown origin) assessed as dissociation constant by flourescence spectroscopy analysis; design: species or system Homo sapiens

N#C/C(=C\c1ccc(N(c2ccccc2)c2ccccc2)cc1)C(=O)O
solubility [1]: < 50 µM
Activity (Homo sapiens [2]): inactive
Activity (Homo sapiens [3]): inactive
IC50 [4]: 11 nM
Stability [5]: Stable
inhibition (Bos taurus [6]): Active
Kd [7]: 56 nM
Activity [8]: Active
Drug degradation [9]: Active
Kd [10]: < 500 nM
solubility [11]: < 50 µM
inhibition (Bos taurus [12]): inactive
Drug degradation [13]: Active
Activity (Homo sapiens [14]): Active
Kd [15]: 45 nM
